Counter-ions that a name gives are not always drawn.
Legend:
Format in all cases: binding
BRD4-BD2 [1] = target: T1, BRD4-BD2 (Homo sapiens (Human), UniProt O60885); assay: BRD4 AlphaScreen Assay (Example A1), BRD4-BD2; conditions: Assay A1, 20 nM BRD4-BD2, 50 nM H4Ac4 peptide; read-out: BRD4 BD-2 enzyme IC50
Procedure: (§1) BRD4-BD1 and BRD4-BD2 assays were conducted in white 384-well polystyrene plate in a final volume of 20 μL for BD1 and 40 μL for BD2. Inhibitors were first serially diluted in DMSO and added to the plate wells before the addition of other reaction components. […] After plate sealing, the plate was incubated in the dark at room temperature for 75 min. before reading on a PHERAstar FS plate reader (BMG Labtech). IC50 determination was performed by fitting the curve of percent control activity versus the log of the inhibitor concentration using the GraphPad Prism 5.0 software.

BRD4-BD1 [2] = target: T2, BRD4-BD1 (Homo sapiens (Human), UniProt O60885); assay: BRD4 AlphaScreen Assay (Example A1), BRD4-BD1; conditions: Assay A1, 3.8 nM BRD4-BD1, 50 nM H4Ac4 peptide; read-out: BRD4 BD-1 enzyme IC50
Procedure: as §1

BRD4-BD2 [3] = target: T1, BRD4-BD2; assay: BRD4 AlphaScreen Assay (Example A2), BRD4-BD2; conditions: Assay A2, AlphaScreen, BRD4-BD2; read-out: BRD4 BD-2 enzyme IC50
Procedure, shortened: (§2)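 Displacement of 50 nM biotinylated tetra-acetylated histone H4 peptide from BRD4 BD1 or BD2 (<1 nM) in Tris-HCl pH 7.5 buffer with DTT. Inhibitors serially diluted in DMSO, added first, then incubated 75 min in the dark at room temperature before AlphaScreen read. IC50 fitted from percent control activity versus log concentration.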

BRD4-BD1 [4] = target: T2, BRD4-BD1; assay: BRD4 AlphaScreen Assay (Example A2), BRD4-BD1; conditions: Assay A2, AlphaScreen, BRD4-BD1; read-out: BRD4 BD-1 enzyme IC50
Procedure, shortened: as §2

| SMILES | IC50 (BRD4-BD2 [1]) [µM] | IC50 (BRD4-BD1 [2]) [µM] | IC50 (BRD4-BD2 [3]) [µM] | IC50 (BRD4-BD1 [4]) [µM] |
| --- | --- | --- | --- | --- |
| Cc1noc(C)c1-c1ccc2[nH]c(=O)n3c2c1OCC3c1ccccc1OCC(=O)NCCO (stereo not drawn) [Example 50, 2-{2-[7-(3,5-Dimethylisoxazol-4-yl)-2-oxo-1,2,4,5-tetrahydroimidazo[1,5,4-de][1,4]benzoxazin-4-yl]phenoxy}-N-(2-hydroxyethyl)acetamide] | < 0.1 | < 0.1 | – | – |
| Cc1n[nH]cc1-c1ccc2[nH]c(=O)n3c2c1OCC3c1ccccc1 (stereo not drawn) [Example 12, 7-(3-Methyl-1H-pyrazol-4-yl)-4-phenyl-4,5-dihydroimidazo[1,5,4-de][1,4]benzoxazin-2(1H)-one] | < 0.1 | 0.1 to 1 | – | – |
| Cc1noc(C)c1-c1ccc2nc(N3CC(O)C3)n3c2c1OCC3c1ccccc1 (stereo not drawn) [Example 59, 1-[7-(3,5-Dimethylisoxazol-4-yl)-4-phenyl-4,5-dihydroimidazo[1,5,4-de][1,4]benzoxazin-2-yl]azetidin-3-ol] | < 0.1 | < 0.1 | – | – |
| Cc1noc(C)c1-c1ccc2[nH]c(=O)n3c2c1OCC3c1ccc(F)cc1F (stereo not drawn) [Example 8, 7-(3,5-Dimethylisoxazol-4-yl)-4-(2,4-difluorophenyl)-4,5-dihydroimidazo[1,5,4-de][1,4]benzoxazin-2(1H)-one] | < 0.1 | < 0.1 | – | – |
| Cc1noc(C)c1-c1ccc2nc(NCCO)n3c2c1OCC3c1ccccc1 (stereo not drawn) [Example 29, 2-{[7-(3,5-Dimethylisoxazol-4-yl)-4-phenyl-4,5-dihydroimidazo[1,5,4-de][1,4]benzoxazin-2-yl]amino}ethanol] | < 0.1 | < 0.1 | – | – |
| Cc1noc(C)c1-c1ccc2nc(NC(C)(C)CO)n3c2c1OCC3c1ccccc1 (stereo not drawn) [Example 33, 2-{[7-(3,5-Dimethylisoxazol-4-yl)-4-phenyl-4,5-dihydroimidazo[1,5,4-de][1,4]benzoxazin-2-yl]amino}-2-methylpropan-1-ol] | 0.1 to 1 | 1 to 10 | – | – |
| Cn1ncc(Cl)c1-c1ccc2[nH]c(=O)n3c2c1OCC3c1ccccc1 (stereo not drawn) [Example 38, 7-(4-Chloro-1-methyl-1H-pyrazol-5-yl)-4-phenyl-4,5-dihydroimidazo[1,5,4-de][1,4]benzoxazin-2(1H)-one] | 0.1 to 1 | 1 to 10 | – | – |
| Cc1noc(C)c1-c1ccc2c3c1OCC(c1ccccc1)n3c(=O)n2C (stereo not drawn) [Example 2, 7-(3,5-Dimethylisoxazol-4-yl)-1-methyl-4-phenyl-4,5-dihydroimidazo[1,5,4-de][1,4]benzoxazin-2(1H)-one] | < 0.1 | < 0.1 | – | – |
| Cn1nccc1-c1cc(Br)c2[nH]c(=O)n3c2c1OCC3c1ccccc1 (stereo not drawn) [Example 36, 9-Bromo-7-(1-methyl-1H-pyrazol-5-yl)-4-phenyl-4,5-dihydroimidazo[1,5,4-de][1,4]benzoxazin-2(1H)-one] | < 0.1 | 0.1 to 1 | – | – |
| Cc1noc(C)c1-c1ccc2nc(NC(C)CO)n3c2c1OCC3c1ccccc1 (single isomer, unassigned) [Example 30, 2-{[7-(3,5-Dimethylisoxazol-4-yl)-4-phenyl-4,5-dihydroimidazo[1,5,4-de][1,4]benzoxazin-2-yl]amino}propan-1-ol] | < 0.1 | < 0.1 | – | – |
| Cc1noc(C)c1-c1ccc2[nH]c(=O)n3c2c1OCC3c1cccnc1 (stereo not drawn) [Example 5, 7-(3,5-Dimethylisoxazol-4-yl)-4-pyridin-3-yl-4,5-dihydroimidazo[1,5,4-de][1,4]benzoxazin-2(1H)-one] | < 0.1 | < 0.1 | – | – |
| Cc1noc(C)c1-c1ccc2nc(NC(C)C)n3c2c1OCC3c1ccccc1 (stereo not drawn) [Example 25, 7-(3,5-Dimethylisoxazol-4-yl)-N-isopropyl-4-phenyl-4,5-dihydroimidazo[1,5,4-de][1,4]benzoxazin-2-amine] | < 0.1 | < 0.1 | – | – |
| Cc1noc(C)c1-c1ccc2nc(N3CCCC3)n3c2c1OCC3c1ccccc1 (stereo not drawn) [Example 54, 7-(3,5-Dimethylisoxazol-4-yl)-4-phenyl-2-pyrrolidin-1-yl-4,5-dihydroimidazo[1,5,4-de][1,4]benzoxazine] | < 0.1 | < 0.1 | – | – |
| Cc1noc(C)c1-c1ccc2[nH]c(=O)n3c2c1OC(C)C3c1ccccc1 (stereo not drawn) [Example 3, 7-(3,5-Dimethylisoxazol-4-yl)-5-methyl-4-phenyl-4,5-dihydroimidazo[1,5,4-de][1,4]benzoxazin-2(1H)-one] | < 0.1 | < 0.1 | – | – |
| Cc1noc(C)c1-c1ccc2nc(C3CCN(C(=O)OC(C)(C)C)C3)n3c2c1OC[C@@H]3c1ccccn1 (single isomer, unassigned; diastereoisomer 1) [Example 101A] | – | – | < 0.1 | < 0.1 |
| Cc1noc(C)c1-c1cc(Br)c2[nH]c(=O)n3c2c1OCC3c1ccccn1 (single isomer, unassigned) [Example 267A, 9-bromo-7-(3,5-dimethylisoxazol-4-yl)-4-pyridin-2-yl-4,5-dihydroimidazo[1,5,4-de][1,4]benzoxazin-2(1H)-one] | – | – | 1 to 10 | 1 to 10 |
| Cc1noc(C)c1-c1ccc2nc(C3CCN(C(=O)OC(C)(C)C)C3)n3c2c1OC[C@@H]3c1ccccn1 (single isomer, unassigned; diastereoisomer 2) [Example 101B] | – | – | < 0.1 | < 0.1 |
| Cc1noc(CF)c1-c1ccc2[nH]c(=O)n3c2c1OCC3c1ccccn1 (stereo not drawn) [Example 125, 7-[5-(Fluoromethyl)-3-methylisoxazol-4-yl]-4-pyridin-2-yl-4,5-dihydroimidazo[1,5,4-de][1,4]benzoxazin-2(1H)-one trifluoroacetate] | – | – | < 0.1 | 1 to 10 |
| Cc1noc(C)c1-c1cc(C)c2[nH]c(=O)n3c2c1OCC3c1ccccc1 (stereo not drawn) [Example 46, 7-(3,5-Dimethylisoxazol-4-yl)-9-methyl-4-phenyl-4,5-dihydroimidazo[1,5,4-de][1,4]benzoxazin-2(1H)-one] | – | – | < 0.1 | < 0.1 |
| CCNc1nc2c(F)cc(-c3c(C)noc3C)c3c2n1C(c1cccnc1)CO3 (stereo not drawn) [Example 158, 7-(3,5-Dimethylisoxazol-4-yl)-N-ethyl-9-fluoro-4-pyridin-3-yl-4,5-dihydroimidazo[1,5,4-de][1,4]benzoxazin-2-amine] | – | – | < 0.1 | < 0.1 |
| Cc1noc(C)c1-c1cc(CNC(=O)Cc2ccccc2)c2[nH]c(=O)n3c2c1OC[C@@H]3c1ccccn1 [Example 139, N-{[(4S)-7-(3,5-Dimethylisoxazol-4-yl)-2-oxo-4-pyridin-2-yl-1,2,4,5-tetrahydroimidazo[1,5,4-de][1,4]benzoxazin-9-yl]methyl}-2-phenylacetamide] | – | – | < 0.1 | < 0.1 |
| COn1c(=O)n2c3c(c(-c4c(C)noc4C)ccc31)CCC2c1ccccn1 (stereo not drawn) [Example 122, 7-(3,5-Dimethylisoxazol-4-yl)-1-methoxy-4-pyridin-2-yl-5,6-dihydro-4H-imidazo[4,5,1-ij]quinolin-2(1H)-one trifluoroacetate] | – | – | < 0.1 | 0.1 to 1 |
| Cc1noc(C)c1-c1cc(CNC(C)C)c2[nH]c(=O)n3c2c1OCC3c1ccccn1 (stereo not drawn) [Example 253, 7-(3,5-Dimethylisoxazol-4-yl)-9-[(isopropylamino)methyl]-4-pyridin-2-yl-4,5-dihydroimidazo[1,5,4-de][1,4]benzoxazin-2(1H)-one] | – | – | 0.1 to 1 | 0.1 to 1 |
| Cc1noc(CO)c1-c1ccc2[nH]c(=O)n3c2c1OCC3c1ccccn1 (racemic) [Example 124, 7-[5-(Hydroxymethyl)-3-methylisoxazol-4-yl]-4-pyridin-2-yl-4,5-dihydroimidazo[1,5,4-de][1,4]benzoxazin-2(1H)-one] | – | – | 0.1 to 1 | 1 to 10 |

Source: patent US9624241B2 (Incyte Corporation, priority 2013, dated 2017)
